What was measured:
[1] = test system: giant foxtail; experiment: Test A postemergence; format: in vivo, Setaria faberii
Method in brief: (§1)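 Greenhouse pot test, loam/sand soil. Formulation: non-phytotoxic solvent mix plus surfactant. Pre: directed spray onto soil after sowing. Post: plants at 1–2 leaf, 2–10 cm. Rated visually vs untreated controls at ~10 d, 0 (no effect) to 100 (complete control).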

[2] = test system: pigweed; experiment: Test A postemergence; format: in vivo, Amaranthus retroflexus
Method in brief: as §1

[3] = test system: velvetleaf; experiment: Test C preemergence; format: in vivo, Abutilon theophrasti; details: for Velvetleaf plant response rating: preemergence, scale 0 (no effect) to 100 (complete control)
Method in brief: (§2)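 Whole-plant greenhouse test with surfactant-containing solvent formulation, applied preemergence to sown loam–sand pots or postemergence to 2–18 cm plants. Scored by eye 13 to 15 days on, 0–100 scale.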

[4] = test system: galium; experiment: Test C preemergence; format: in vivo, Galium aparine; details: for Galium plant response rating: preemergence, scale 0 (no effect) to 100 (complete control)
Method in brief: as §2

[5] = test system: ragweed; experiment: Test C preemergence; format: in vivo, Ambrosia elatior; details: for Ragweed plant response rating: preemergence, scale 0 (no effect) to 100 (complete control)
Method in brief: as §2

[6] = test system: corn; experiment: Test A postemergence; format: in vivo, Zea mays
Method in brief: as §1

[7] = test system: corn; experiment: Test C preemergence; format: in vivo, Zea mays; details: for Corn plant response rating: preemergence, scale 0 (no effect) to 100 (complete control)
Method in brief: as §2

[8] = test system: giant foxtail; experiment: Test C postemergence; format: in vivo, Setaria faberii; details: for Plant response rating (0 to 100), Foxtail, Giant: postemergence; for Plant response rating, Foxtail, Giant: Postemergence, scale 0 to 100 (0 no effect, 100 complete control)
Method in brief: as §2

[9] = test system: lambsquarters; experiment: Test C postemergence; format: in vivo, Chenopodium album; details: for Plant response rating (0 to 100), Lambsquarters: postemergence; for Plant response rating, Lambsquarters: Postemergence, scale 0 to 100 (0 no effect, 100 complete control)
Method in brief: as §2

[10] = test system: morningglory; experiment: Test C preemergence; format: in vivo, Ipomoea coccinea; details: for Morningglory plant response rating: preemergence, scale 0 (no effect) to 100 (complete control)
Method in brief: as §2

[11] = test system: wheat; experiment: Test A preemergence; format: in vivo, Triticum aestivum
Method in brief: as §1

[12] = test system: morningglory; experiment: Test C postemergence; format: in vivo, Ipomoea coccinea; details: for Plant response rating (0 to 100), Morningglory: postemergence; for Plant response rating, Morningglory: Postemergence, scale 0 to 100 (0 no effect, 100 complete control)
Method in brief: as §2

[13] = test system: pigweed; experiment: Test C postemergence; format: in vivo, Amaranthus retroflexus; details: for Plant response rating (0 to 100), Pigweed: postemergence; for Plant response rating, Pigweed: Postemergence, scale 0 to 100 (0 no effect, 100 complete control)
Method in brief: as §2

[14] = test system: ragweed; experiment: Test C postemergence; format: in vivo, Ambrosia elatior; details: for Plant response rating (0 to 100), Ragweed: postemergence; for Plant response rating, Ragweed: Postemergence, scale 0 to 100 (0 no effect, 100 complete control)
Method in brief: as §2

[15] = test system: large (Lg) crabgrass; experiment: Test C postemergence; format: in vivo, Digitaria sanguinalis; details: for Plant response rating (0 to 100), Crabgrass, Large: postemergence; for Plant response rating, Crabgrass, Large: Postemergence, scale 0 to 100 (0 no effect, 100 complete control)
Method in brief: as §2

[16] = test system: lambsquarters; experiment: Test C preemergence; format: in vivo, Chenopodium album; details: for Lambsquarters plant response rating: preemergence, scale 0 (no effect) to 100 (complete control)
Method in brief: as §2

[17] = test system: soybean; experiment: Test C postemergence; format: in vivo, Glycine max; details: for Plant response rating (0 to 100), Soybean: postemergence; for Plant response rating, Soybean: Postemergence, scale 0 to 100 (0 no effect, 100 complete control)
Method in brief: as §2

[18] = 125 g ai/ha, 0 to 100 scale where 0 is no effect and 100 is complete control
[19] = 500 g ai/ha, 0 to 100 scale, 0 no effect, 100 complete control
[20] = Preemergence, 31 g ai/ha, scale 0 to 100, 0 no effect, 100 complete control

FC(F)(F)c1cnn(-c2ccccc2Oc2ncc(Cl)cn2)c1 [Compound 16]
Plant response rating, Foxtail, Giant [1, 18]: 100 | Plant response rating, Foxtail, Giant [1, 19]: 100 | Plant response rating, Pigweed [2, 18]: 100 | Plant response rating, Pigweed [2, 19]: 100 | Velvetleaf plant response rating ([3]; 62 g ai/ha): 100 | Velvetleaf plant response rating ([3]; 125 g ai/ha): 100 | Velvetleaf plant response rating ([3]; 250 g ai/ha): 100 | Plant response rating, Velvetleaf [3, 20]: 98 | Galium plant response rating ([4]; 62 g ai/ha): 100 | Galium plant response rating ([4]; 125 g ai/ha): 100 | Galium plant response rating ([4]; 250 g ai/ha): 100 | Plant response rating, Galium [4, 20]: 95 | Ragweed plant response rating ([5]; 62 g ai/ha): 25 | Ragweed plant response rating ([5]; 125 g ai/ha): 55 | Ragweed plant response rating ([5]; 250 g ai/ha): 60 | Plant response rating, Ragweed [5, 20]: 0 | Plant response rating, Corn [6, 18]: 70 | Plant response rating, Corn [6, 19]: 80 | Corn plant response rating ([7]; 62 g ai/ha): 15 | Corn plant response rating ([7]; 125 g ai/ha): 25 | Corn plant response rating ([7]; 250 g ai/ha): 35 | Plant response rating, Corn [7, 20]: 0 | Plant response rating (0 to 100), Foxtail, Giant ([8]; 125 g ai/ha): 15 | Plant response rating (0 to 100), Foxtail, Giant ([8]; 250 g ai/ha): 85 | Plant response rating, Foxtail, Giant ([8]; 31 g ai/ha, 13 to 15 days): 5 | Plant response rating, Foxtail, Giant ([8]; 62 g ai/ha): 10 | Plant response rating (0 to 100), Lambsquarters ([9]; 125 g ai/ha): 100 | Plant response rating (0 to 100), Lambsquarters ([9]; 250 g ai/ha): 100 | Plant response rating, Lambsquarters ([9]; 31 g ai/ha, 13 to 15 days): 75 | Plant response rating, Lambsquarters ([9]; 62 g ai/ha): 100 | Morningglory plant response rating ([10]; 62 g ai/ha): 75 | Morningglory plant response rating ([10]; 125 g ai/ha): 90 | Morningglory plant response rating ([10]; 250 g ai/ha): 98 | Plant response rating, Morningglory [10, 20]: 10 | Wheat plant response rating [11, 18]: 20 | Wheat plant response rating ([11]; 500 g ai/ha, 0 to 100 scale, 0 no effect, 100 complete control, approx. 10 days): 60 | Plant response rating (0 to 100), Morningglory ([12]; 125 g ai/ha): 80 | Plant response rating (0 to 100), Morningglory ([12]; 250 g ai/ha): 85 | Plant response rating, Morningglory ([12]; 31 g ai/ha, 13 to 15 days): 65 | Plant response rating, Morningglory ([12]; 62 g ai/ha): 80 | Plant response rating (0 to 100), Pigweed ([13]; 125 g ai/ha): 100 | Plant response rating (0 to 100), Pigweed ([13]; 250 g ai/ha): 100 | Plant response rating, Pigweed ([13]; 31 g ai/ha, 13 to 15 days): 80 | Plant response rating, Pigweed ([13]; 62 g ai/ha): 98 | Plant response rating (0 to 100), Ragweed ([14]; 125 g ai/ha): 40 | Plant response rating (0 to 100), Ragweed ([14]; 250 g ai/ha): 90 | Plant response rating, Ragweed ([14]; 31 g ai/ha, 13 to 15 days): 15 | Plant response rating, Ragweed ([14]; 62 g ai/ha): 30 | Plant response rating (0 to 100), Crabgrass, Large ([15]; 125 g ai/ha): 30 | Plant response rating (0 to 100), Crabgrass, Large ([15]; 250 g ai/ha): 85 | Plant response rating, Crabgrass, Large ([15]; 31 g ai/ha, 13 to 15 days): 10 | Plant response rating, Crabgrass, Large ([15]; 62 g ai/ha): 20 | Lambsquarters plant response rating ([16]; 62 g ai/ha): 80 | Lambsquarters plant response rating ([16]; 125 g ai/ha): 80 | Lambsquarters plant response rating ([16]; 250 g ai/ha): 90 | Plant response rating, Lambsquarters [16, 20]: 20 | Plant response rating (0 to 100), Soybean ([17]; 125 g ai/ha): 90 | Plant response rating (0 to 100), Soybean ([17]; 250 g ai/ha): 90 | Plant response rating, Soybean ([17]; 31 g ai/ha, 13 to 15 days): 75 | Plant response rating, Soybean ([17]; 62 g ai/ha): 85

Source: US9695155B2, “Herbicidal substituted pyrimidinyloxy benzene compounds” (E. I. DU PONT DE NEMOURS AND COMPANY, priority 2013, dated 2017)
